# Measured values: PubChem BioAssay (NCI)
#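 Method: 48-hour compound exposure of cells in 96-well plates, five concentrations, linear interpolation of endpoints. GI50 is the concentration that inhibits growth by half. TGI: total growth inhibition.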
# How the values were obtained:
# Test in all cases: inhibition of tumour cell growth, NCI panel, 48 h
# M14 melanoma = test system: M14 melanoma
# MDA-MB-435 = test system: MDA-MB-435
# ACHN renal = test system: ACHN renal
# MDA-MB-231 breast = test system: MDA-MB-231 breast
# CCRF-CEM leukemia = test system: CCRF-CEM leukemia
# RPMI-8226 leukemia = test system: RPMI-8226 leukemia
# MCF7 breast = test system: MCF7 breast
# SN12C renal = test system: SN12C renal
# SNB-75 CNS = test system: SNB-75 CNS
# A549 NSCLC = test system: A549 NSCLC
# T-47D breast = test system: T-47D breast
# LOX IMVI melanoma = test system: LOX IMVI melanoma
# A498 renal = test system: A498 renal
# TK-10 renal = test system: TK-10 renal
# IGROV1 ovarian = test system: IGROV1 ovarian
# MOLT-4 leukemia = test system: MOLT-4 leukemia
# MALME-3M melanoma = test system: MALME-3M melanoma
# 786-0 renal = test system: 786-0 renal
# BT-549 breast = test system: BT-549 breast
# UACC-257 melanoma = test system: UACC-257 melanoma
# HCT-15 colon = test system: HCT-15 colon
# HS 578T breast = test system: HS 578T breast
# PC-3 prostate = test system: PC-3 prostate
# HT29 colon = test system: HT29 colon
# HCT-116 colon = test system: HCT-116 colon
# K-562 leukemia = test system: K-562 leukemia
# RXF 393 renal = test system: RXF 393 renal
# SK-OV-3 ovarian = test system: SK-OV-3 ovarian
# HL-60(TB) leukemia = test system: HL-60(TB) leukemia
# NCI-H226 lung = test system: NCI-H226 lung
# HCC-2998 colon = test system: HCC-2998 colon
# CAKI-1 renal = test system: CAKI-1 renal
# SR leukemia = test system: SR leukemia
# OVCAR-3 ovarian = test system: OVCAR-3 ovarian
# SK-MEL-28 melanoma = test system: SK-MEL-28 melanoma
# SK-MEL-5 melanoma = test system: SK-MEL-5 melanoma
# OVCAR-4 ovarian = test system: OVCAR-4 ovarian
# SW-620 colon = test system: SW-620 colon
# NCI-H522 lung = test system: NCI-H522 lung
# NCI/ADR-RES ovarian = test system: NCI/ADR-RES ovarian
# HOP-92 NSCLC = test system: HOP-92 NSCLC
# U251 CNS = test system: U251 CNS
# SK-MEL-2 melanoma = test system: SK-MEL-2 melanoma
# MDA-MB-468 breast = test system: MDA-MB-468 breast
# KM12 colon = test system: KM12 colon
# DU-145 prostate = test system: DU-145 prostate
# SF-268 CNS = test system: SF-268 CNS
# SF-295 CNS = test system: SF-295 CNS
# OVCAR-5 ovarian = test system: OVCAR-5 ovarian
# UACC-62 melanoma = test system: UACC-62 melanoma
# SF-539 CNS = test system: SF-539 CNS
# COLO 205 colon = test system: COLO 205 colon
# EKVX NSCLC = test system: EKVX NSCLC
# HOP-62 NSCLC = test system: HOP-62 NSCLC
# NCI-H460 lung = test system: NCI-H460 lung
# OVCAR-8 ovarian = test system: OVCAR-8 ovarian
# UO-31 renal = test system: UO-31 renal
# NCI-H23 lung = test system: NCI-H23 lung
# SNB-19 CNS = test system: SNB-19 CNS
smiles,measurement,setting,value
Fc1ccc(/C=C/c2nc3ccccc3n3c(-c4ccc(Cl)cc4)nnc23)cc1,GI50,M14 melanoma,14.2 µM
same,TGI,M14 melanoma,32.9 µM
same,GI50,MDA-MB-435,26.5 µM
same,TGI,MDA-MB-435,> 100 µM
same,GI50,ACHN renal,13.6 µM
same,TGI,ACHN renal,46.2 µM
same,GI50,MDA-MB-231 breast,20 µM
same,TGI,MDA-MB-231 breast,88.4 µM
same,GI50,CCRF-CEM leukemia,2.82 µM
same,TGI,CCRF-CEM leukemia,8.8 µM
same,GI50,RPMI-8226 leukemia,16.7 µM
same,TGI,RPMI-8226 leukemia,> 100 µM
same,GI50,MCF7 breast,1.78 µM
same,TGI,MCF7 breast,34.6 µM
same,GI50,SN12C renal,13.5 µM
same,TGI,SN12C renal,34.3 µM
same,GI50,SNB-75 CNS,4.47 µM
same,TGI,SNB-75 CNS,> 100 µM
same,GI50,A549 NSCLC,18.8 µM
same,TGI,A549 NSCLC,> 100 µM
same,GI50,T-47D breast,14.3 µM
same,TGI,T-47D breast,> 100 µM
same,GI50,LOX IMVI melanoma,1.61 µM
same,TGI,LOX IMVI melanoma,3.41 µM
same,GI50,A498 renal,> 100 µM
same,TGI,A498 renal,> 100 µM
same,GI50,TK-10 renal,36.9 µM
same,TGI,TK-10 renal,> 100 µM
same,GI50,IGROV1 ovarian,13.8 µM
same,TGI,IGROV1 ovarian,51.4 µM
same,GI50,MOLT-4 leukemia,3.74 µM
same,TGI,MOLT-4 leukemia,34.9 µM
same,GI50,MALME-3M melanoma,11.3 µM
same,TGI,MALME-3M melanoma,24.9 µM
same,GI50,786-0 renal,31.5 µM
same,TGI,786-0 renal,> 100 µM
same,GI50,BT-549 breast,16 µM
same,TGI,BT-549 breast,72.6 µM
same,GI50,UACC-257 melanoma,38.6 µM
same,TGI,UACC-257 melanoma,> 100 µM
same,GI50,HCT-15 colon,9.36 µM
same,TGI,HCT-15 colon,25.4 µM
same,GI50,HS 578T breast,29.3 µM
same,TGI,HS 578T breast,> 100 µM
same,GI50,PC-3 prostate,30.4 µM
same,TGI,PC-3 prostate,> 100 µM
same,GI50,HT29 colon,11.8 µM
same,TGI,HT29 colon,33 µM
same,GI50,HCT-116 colon,12.5 µM
same,TGI,HCT-116 colon,41.2 µM
same,GI50,K-562 leukemia,6.46 µM
same,TGI,K-562 leukemia,> 100 µM
same,GI50,RXF 393 renal,10.8 µM
same,TGI,RXF 393 renal,72.5 µM
same,GI50,SK-OV-3 ovarian,62.6 µM
same,TGI,SK-OV-3 ovarian,> 100 µM
same,GI50,HL-60(TB) leukemia,27.4 µM
same,TGI,HL-60(TB) leukemia,> 100 µM
same,GI50,NCI-H226 lung,31.5 µM
same,TGI,NCI-H226 lung,> 100 µM
same,GI50,HCC-2998 colon,37.9 µM
same,TGI,HCC-2998 colon,> 100 µM
same,GI50,CAKI-1 renal,44.2 µM
same,TGI,CAKI-1 renal,> 100 µM
same,GI50,SR leukemia,2.44 µM
same,TGI,SR leukemia,19.7 µM
same,GI50,OVCAR-3 ovarian,23 µM
same,TGI,OVCAR-3 ovarian,> 100 µM
same,GI50,SK-MEL-28 melanoma,54.4 µM
same,TGI,SK-MEL-28 melanoma,> 100 µM
same,GI50,SK-MEL-5 melanoma,29.1 µM
same,TGI,SK-MEL-5 melanoma,> 100 µM
same,GI50,OVCAR-4 ovarian,20.1 µM
same,TGI,OVCAR-4 ovarian,95.6 µM
same,GI50,SW-620 colon,11.3 µM
same,TGI,SW-620 colon,25.7 µM
same,GI50,NCI-H522 lung,1.47 µM
same,TGI,NCI-H522 lung,3.01 µM
same,GI50,NCI/ADR-RES ovarian,30.4 µM
same,TGI,NCI/ADR-RES ovarian,> 100 µM
same,GI50,HOP-92 NSCLC,24.4 µM
same,TGI,HOP-92 NSCLC,> 100 µM
same,GI50,U251 CNS,18.4 µM
same,TGI,U251 CNS,88.6 µM
same,GI50,SK-MEL-2 melanoma,40.1 µM
same,TGI,SK-MEL-2 melanoma,> 100 µM
same,GI50,MDA-MB-468 breast,3.78 µM
same,TGI,MDA-MB-468 breast,20.2 µM
same,GI50,KM12 colon,> 100 µM
same,TGI,KM12 colon,> 100 µM
same,GI50,DU-145 prostate,16.6 µM
same,TGI,DU-145 prostate,53.1 µM
same,GI50,SF-268 CNS,67.7 µM
same,TGI,SF-268 CNS,> 100 µM
same,GI50,SF-295 CNS,> 100 µM
same,TGI,SF-295 CNS,> 100 µM
same,GI50,OVCAR-5 ovarian,23.3 µM
same,TGI,OVCAR-5 ovarian,> 100 µM
same,GI50,UACC-62 melanoma,21 µM
same,TGI,UACC-62 melanoma,> 100 µM
same,GI50,SF-539 CNS,16.8 µM
same,TGI,SF-539 CNS,40.6 µM
same,GI50,COLO 205 colon,18.9 µM
same,TGI,COLO 205 colon,71.4 µM
same,GI50,EKVX NSCLC,58.3 µM
same,TGI,EKVX NSCLC,> 100 µM
same,GI50,HOP-62 NSCLC,47.7 µM
same,TGI,HOP-62 NSCLC,> 100 µM
same,GI50,NCI-H460 lung,25.3 µM
same,TGI,NCI-H460 lung,> 100 µM
same,GI50,OVCAR-8 ovarian,16.2 µM
same,TGI,OVCAR-8 ovarian,80.4 µM
same,GI50,UO-31 renal,14.1 µM
same,TGI,UO-31 renal,> 100 µM
same,GI50,NCI-H23 lung,17.1 µM
same,TGI,NCI-H23 lung,53 µM
same,GI50,SNB-19 CNS,51 µM
same,TGI,SNB-19 CNS,> 100 µM
